According to ChEMBL document CHEMBL1201862, “PubChem BioAssay data set” (2004):
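Cultured in 96-well plates, cells were exposed to test compound for 48 hours across five concentrations. The concentration for 50% growth inhibition is given as GI50.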 Active and inactive are the calls of the source. Cut-off read from the data, not from the text of the source: active = GI50 up to about 1.1 µM and inactive = higher.

Experiments:
Assay in all cases: NCI-60 cell line screen, 48 h
MCF7 = system: MCF7
IGROV-1 = system: IGROV-1
HOP-92 = system: HOP-92
Hs-578T = system: Hs-578T
SW-620 = system: SW-620
OVCAR-4 = system: OVCAR-4
UACC-62 = system: UACC-62
SNB-75 = system: SNB-75
LOX IMVI = system: LOX IMVI
RPMI-8226 = system: RPMI-8226
A498 = system: A498
MDA-MB-231 = system: MDA-MB-231
NCI-H460 = system: NCI-H460
TK-10 = system: TK-10
SF-268 = system: SF-268
NCI-H23 = system: NCI-H23
DU-145 = system: DU-145
RXF 393 = system: RXF 393
U-251 = system: U-251
MOLT-4 = system: MOLT-4
SF-295 = system: SF-295
SK-MEL-2 = system: SK-MEL-2
Malme-3M = system: Malme-3M
SK-MEL-28 = system: SK-MEL-28
K562 = system: K562
786-0 = system: 786-0
CCRF-CEM = system: CCRF-CEM
BT-549 = system: BT-549
MDA-N = system: MDA-N
T47D = system: T47D
HCT-15 = system: HCT-15
SNB-19 = system: SNB-19
SR = system: SR
CAKI-1 = system: CAKI-1
UO-31 = system: UO-31
KM12 = system: KM12
EKVX = system: EKVX
NCI/ADR-RES = system: NCI/ADR-RES
OVCAR-8 = system: OVCAR-8
A549 = system: A549
OVCAR-5 = system: OVCAR-5
MDA-MB-435 = system: MDA-MB-435
HCC 2998 = system: HCC 2998
SK-MEL-5 = system: SK-MEL-5
PC-3 = system: PC-3
M14 = system: M14
NCI-H226 = system: NCI-H226
HT-29 = system: HT-29
COLO 205 = system: COLO 205
SK-OV-3 = system: SK-OV-3
OVCAR-3 = system: OVCAR-3
UACC-257 = system: UACC-257
HCT-116 = system: HCT-116
HL-60 = system: HL-60
ACHN = system: ACHN
SF-539 = system: SF-539
SN12C = system: SN12C
HOP-62 = system: HOP-62
NCI-H522 = system: NCI-H522

Clc1ccc(C2=CC(c3ccccc3)N3C(=N[C@H]4CCCC[C@@H]43)N2)cc1 (stereo not given in full)
GI50 (MCF7): 3.55 µM (inactive)
GI50 (IGROV-1): 3.39 µM (inactive)
GI50 (HOP-92): 4.68 µM (inactive)
GI50 (Hs-578T): 3.12 µM (inactive)
GI50 (SW-620): 3.74 µM (inactive)
GI50 (OVCAR-4): 5.61 µM (inactive)
GI50 (UACC-62): 5.82 µM (inactive)
GI50 (SNB-75): 3.48 µM (inactive)
GI50 (LOX IMVI): 6.46 µM (inactive)
GI50 (RPMI-8226): 2.31 µM (inactive)
GI50 (A498): 10.4 µM (inactive)
GI50 (MDA-MB-231): 9.08 µM (inactive)
GI50 (NCI-H460): 2.88 µM (inactive)
GI50 (TK-10): 7.5 µM (inactive)
GI50 (SF-268): 6.14 µM (inactive)
GI50 (NCI-H23): 7.82 µM (inactive)
GI50 (DU-145): 8.41 µM (inactive)
GI50 (RXF 393): 2.47 µM (inactive)
GI50 (U-251): 4.54 µM (inactive)
GI50 (MOLT-4): 2.64 µM (inactive)
GI50 (SF-295): 7.67 µM (inactive)
GI50 (SK-MEL-2): 13.6 µM (inactive)
GI50 (Malme-3M): 2.67 µM (inactive)
GI50 (SK-MEL-28): 2.79 µM (inactive)
GI50 (K562): 2.09 µM (inactive)
GI50 (786-0): 2.79 µM (inactive)
GI50 (CCRF-CEM): 4.94 µM (inactive)
GI50 (BT-549): 9.12 µM (inactive)
GI50 (MDA-N): 6.05 µM (inactive)
GI50 (T47D): 6.4 µM (inactive)
GI50 (HCT-15): 4.08 µM
GI50 (SNB-19): 4.55 µM (inactive)
GI50 (SR): 2.14 µM (inactive)
GI50 (CAKI-1): 13.9 µM (inactive)
GI50 (UO-31): 10.8 µM (inactive)
GI50 (KM12): 2.07 µM (inactive)
GI50 (EKVX): 4.47 µM (inactive)
GI50 (NCI/ADR-RES): 4.35 µM (inactive)
GI50 (OVCAR-8): 2.7 µM (inactive)
GI50 (A549): 5.47 µM (inactive)
GI50 (OVCAR-5): 11.5 µM (inactive)
GI50 (MDA-MB-435): 7.57 µM (inactive)
GI50 (HCC 2998): 2.08 µM (inactive)
GI50 (SK-MEL-5): 1.71 µM (inactive)
GI50 (PC-3): 6.56 µM (inactive)
GI50 (M14): 2.98 µM (inactive)
GI50 (NCI-H226): 8.85 µM (inactive)
GI50 (HT-29): 2.39 µM (inactive)
GI50 (COLO 205): 1.77 µM (inactive)
GI50 (SK-OV-3): 14.3 µM (inactive)
GI50 (OVCAR-3): 6.4 µM (inactive)
GI50 (UACC-257): 12.9 µM (inactive)
GI50 (HCT-116): 3.03 µM (inactive)
GI50 (HL-60): 2.82 µM (inactive)
GI50 (ACHN): 5.24 µM (inactive)
GI50 (SF-539): 6.08 µM (inactive)

Cc1[nH]n(-c2ccc(S(=O)(=O)O)cc2)c(=O)c1/N=N/c1ccccc1
GI50 (MCF7): > 100 µM (inactive)
GI50 (IGROV-1): > 100 µM (inactive)
GI50 (HOP-92): > 100 µM (inactive)
GI50 (Hs-578T): > 100 µM (inactive)
GI50 (SW-620): > 100 µM (inactive)
GI50 (OVCAR-4): > 100 µM (inactive)
GI50 (UACC-62): 95.1 µM (inactive)
GI50 (SNB-75): > 100 µM (inactive)
GI50 (LOX IMVI): 26.7 µM (inactive)
GI50 (RPMI-8226): > 100 µM (inactive)
GI50 (A498): > 100 µM (inactive)
GI50 (MDA-MB-231): > 100 µM (inactive)
GI50 (SN12C): > 100 µM (inactive)
GI50 (NCI-H460): > 100 µM (inactive)
GI50 (HOP-62): > 100 µM (inactive)
GI50 (TK-10): > 100 µM (inactive)
GI50 (SF-268): 50.7 µM (inactive)
GI50 (NCI-H23): > 100 µM (inactive)
GI50 (DU-145): > 100 µM (inactive)
GI50 (RXF 393): > 100 µM (inactive)
GI50 (U-251): > 100 µM (inactive)
GI50 (MOLT-4): > 100 µM (inactive)
GI50 (SF-295): > 100 µM (inactive)
GI50 (SK-MEL-2): > 100 µM (inactive)
GI50 (Malme-3M): 51.6 µM (inactive)
GI50 (SK-MEL-28): > 100 µM (inactive)
GI50 (K562): > 100 µM (inactive)
GI50 (786-0): > 100 µM (inactive)
GI50 (BT-549): > 100 µM (inactive)
GI50 (MDA-N): > 100 µM (inactive)
GI50 (T47D): > 100 µM (inactive)
GI50 (HCT-15): > 100 µM
GI50 (SNB-19): > 100 µM (inactive)
GI50 (SR): > 100 µM (inactive)
GI50 (CAKI-1): > 100 µM (inactive)
GI50 (UO-31): > 100 µM (inactive)
GI50 (KM12): > 100 µM (inactive)
GI50 (EKVX): > 100 µM (inactive)
GI50 (NCI/ADR-RES): > 100 µM (inactive)
GI50 (OVCAR-8): > 100 µM (inactive)
GI50 (A549): > 100 µM (inactive)
GI50 (OVCAR-5): > 100 µM (inactive)
GI50 (MDA-MB-435): > 100 µM (inactive)
GI50 (HCC 2998): 8.04 µM (inactive)
GI50 (SK-MEL-5): > 100 µM (inactive)
GI50 (PC-3): > 100 µM (inactive)
GI50 (M14): > 100 µM (inactive)
GI50 (HT-29): > 100 µM (inactive)
GI50 (COLO 205): > 100 µM (inactive)
GI50 (SK-OV-3): > 100 µM (inactive)
GI50 (OVCAR-3): > 100 µM (inactive)
GI50 (UACC-257): > 100 µM (inactive)
GI50 (HCT-116): > 100 µM (inactive)
GI50 (ACHN): 55.2 µM (inactive)
GI50 (SF-539): > 100 µM (inactive)
GI50 (NCI-H522): 35 µM (inactive)

Cc1nc2ccc(S(=O)(=O)Nc3ccccn3)cc2c(=O)n1NS(=O)(=O)c1ccccn1
GI50 (MCF7): > 100 µM (inactive)
GI50 (IGROV-1): > 100 µM (inactive)
GI50 (HOP-92): > 100 µM (inactive)
GI50 (Hs-578T): > 100 µM (inactive)
GI50 (SW-620): > 100 µM (inactive)
GI50 (OVCAR-4): > 100 µM (inactive)
GI50 (UACC-62): > 100 µM (inactive)
GI50 (SNB-75): > 100 µM (inactive)
GI50 (LOX IMVI): > 100 µM (inactive)
GI50 (RPMI-8226): > 100 µM (inactive)
GI50 (A498): > 100 µM (inactive)
GI50 (MDA-MB-231): > 100 µM (inactive)
GI50 (SN12C): > 100 µM (inactive)
GI50 (NCI-H460): > 100 µM (inactive)
GI50 (HOP-62): > 100 µM (inactive)
GI50 (TK-10): > 100 µM (inactive)
GI50 (SF-268): > 100 µM (inactive)
GI50 (NCI-H23): > 100 µM (inactive)
GI50 (DU-145): > 100 µM (inactive)
GI50 (RXF 393): > 100 µM (inactive)
GI50 (U-251): > 100 µM (inactive)
GI50 (MOLT-4): > 100 µM (inactive)
GI50 (SF-295): > 100 µM (inactive)
GI50 (SK-MEL-2): > 100 µM (inactive)
GI50 (Malme-3M): > 100 µM (inactive)
GI50 (SK-MEL-28): > 100 µM (inactive)
GI50 (K562): > 100 µM (inactive)
GI50 (786-0): > 100 µM (inactive)
GI50 (CCRF-CEM): > 100 µM (inactive)
GI50 (BT-549): > 100 µM (inactive)
GI50 (MDA-N): > 100 µM (inactive)
GI50 (T47D): > 100 µM (inactive)
GI50 (HCT-15): > 100 µM
GI50 (SNB-19): > 100 µM (inactive)
GI50 (SR): > 100 µM (inactive)
GI50 (CAKI-1): > 100 µM (inactive)
GI50 (UO-31): > 100 µM (inactive)
GI50 (KM12): > 100 µM (inactive)
GI50 (EKVX): > 100 µM (inactive)
GI50 (NCI/ADR-RES): > 100 µM (inactive)
GI50 (OVCAR-8): > 100 µM (inactive)
GI50 (OVCAR-5): > 100 µM (inactive)
GI50 (MDA-MB-435): > 100 µM (inactive)
GI50 (HCC 2998): > 100 µM (inactive)
GI50 (SK-MEL-5): > 100 µM (inactive)
GI50 (PC-3): > 100 µM (inactive)
GI50 (M14): > 100 µM (inactive)
GI50 (NCI-H226): > 100 µM (inactive)
GI50 (HT-29): > 100 µM (inactive)
GI50 (COLO 205): > 100 µM (inactive)
GI50 (SK-OV-3): > 100 µM (inactive)
GI50 (OVCAR-3): > 100 µM (inactive)
GI50 (UACC-257): > 100 µM (inactive)
GI50 (HCT-116): > 100 µM (inactive)
GI50 (HL-60): > 100 µM (inactive)
GI50 (ACHN): > 100 µM (inactive)
GI50 (SF-539): > 100 µM (inactive)
GI50 (NCI-H522): > 100 µM (inactive)
